This is an account of results in patent US8951964B2, “Phenanthridine macrocyclic hepatitis C serine protease inhibitors” (priority 2010, dated 2015).

What all share (type): cell-based, HCV
Assay [1] relates to genotype 3a NS3 gene in transient replicon. As to the kind of experiment: 3a transient replicon (luciferase reporter). Particulars: Hepatitis C virus, Huh-7, read-out: 3a transient replicon (nM).
For assay [2], the system named is genotype 1a transient replicon (1a-H77). As to the kind of experiment: 1a transient replicon (luciferase reporter). Particulars: Hepatitis C virus, HuH-7 cells, 5% FBS. For orientation: Replicon systems follow genome replication, usually without infectious particles.
The test system of assay [3] is genotype 1b replicon (1b-Con1, 1b-N). As to the kind of experiment: 1b stable replicon (luciferase reporter). Particulars: Hepatitis C virus, HuH-7 cells, 5% FBS.
Assay [4] concerns genotype 1a replicon (1a-H77). As to the kind of experiment: 1a stable replicon (luciferase reporter). Particulars: Hepatitis C virus, Huh-7, luciferase reporter, HuH-7 cells, 5% FBS.
For assay [5], the system named is genotype 1b transient replicon. Description: 1b transient replicon (luciferase reporter). Particulars: Hepatitis C virus, HuH-7 cells, 5% FBS.

Regarding `Cn1ccc(C(=O)N[C@H]2CCCCC/C=C\[C@@H]3C[C@@]3(C(=O)NS(=O)(=O)C3(C)CC3)NC(=O)[C@@H]3C[C@@H](Oc4nc5ccccc5c5ccc(F)cc45)CN3C2=O)n1`, the EC50 in assay [1] was 0.5 to 1 nM; in assay [2], 0.1 to 0.5 nM; in assay [3], less than 0.1 nM; in assay [4], 0.1 to 0.5 nM; in assay [5] it was 0.1 to 0.5 nM.

Consider `Cn1ccc(C(=O)N[C@H]2CCCCC/C=C\[C@@H]3C[C@@]3(C(=O)NS(=O)(=O)C3(C)CC3)NC(=O)[C@@H]3C[C@@H](Oc4nc5ccccc5c5cc(F)ccc45)CN3C2=O)n1`, for which the EC50 in assay [1] fell in the range of 0.5 to 1 nM; in assay [2], 0.1 to 0.5 nM; in assay [3], 0.1 to 0.5 nM; in assay [4], 0.5 to 1 nM; in assay [5], 0.1 to 0.5 nM.

`CC1(S(=O)(=O)NC(=O)[C@@]23C[C@H]2/C=C\CCCCC[C@H](NC(=O)c2cncs2)C(=O)N2C[C@H](Oc4nc5cc(F)ccc5c5ccccc45)C[C@H]2C(=O)N3)CC1`: the EC50 in assay [1] was more than 1 nM; in assay [2], less than 0.1 nM; in assay [3], 0.5 to 1 nM; in assay [4], 0.5 to 1 nM; in assay [5], 0.1 to 0.5 nM.

Turning to `Cc1ccc(C(=O)N[C@H]2CCCCC/C=C\[C@@H]3C[C@@]3(C(=O)NS(=O)(=O)C3(C)CC3)NC(=O)[C@@H]3C[C@@H](Oc4nc5cc(F)ccc5c5ccccc45)CN3C2=O)s1`, the EC50 in assay [1] is less than 1 nM; in assay [2] it was 0.1 to 0.5 nM; in assay [3] it was 0.1 to 0.5 nM; in assay [4], 0.5 to 1 nM; in assay [5], 0.1 to 0.5 nM.

For the compound `Cn1ccc(C(=O)N[C@H]2CCCCC/C=C\[C@@H]3C[C@@]3(C(=O)NS(=O)(=O)C3CC3)NC(=O)[C@@H]3C[C@@H](Oc4nc5cc(F)ccc5c5cc(OC(F)(F)F)ccc45)CN3C2=O)n1`, the EC50 in assay [1] was more than 1 nM; in assay [2], 0.1 to 0.5 nM; in assay [3], less than 0.1 nM; in assay [4] it was 0.5 to 1 nM; in assay [5], 0.1 to 0.5 nM.

For `CC1(S(=O)(=O)NC(=O)[C@@]23C[C@H]2/C=C\CCCCC[C@H](NC(=O)c2ccc(F)s2)C(=O)N2C[C@H](Oc4nc5cc(F)ccc5c5ccccc45)C[C@H]2C(=O)N3)CC1`, the EC50 in assay [1] is more than 1 nM; in assay [2] it was less than 0.1 nM; in assay [3], 0.1 to 0.5 nM; in assay [4], 0.5 to 1 nM; in assay [5], 0.1 to 0.5 nM.

On to `Cc1cc(C(=O)N[C@H]2CCCCC/C=C\[C@@H]3C[C@@]3(C(=O)NS(=O)(=O)C3CC3)NC(=O)[C@@H]3C[C@@H](Oc4nc5ccccc5c5ccc(F)cc45)CN3C2=O)no1`, for which the EC50 is more than 1 nM in assay [1]; less than 0.1 nM in assay [2]; 0.1 to 0.5 nM in assay [3]; 0.1 to 0.5 nM in assay [4]; 0.1 to 0.5 nM in assay [5].

Take `O=C(N[C@H]1CCCCC/C=C\[C@@H]2C[C@@]2(C(=O)NS(=O)(=O)C2CC2)NC(=O)[C@@H]2C[C@@H](Oc3nc4ccccc4c4cc(F)ccc34)CN2C1=O)c1cncs1`: the EC50 in assay [1] is more than 1 nM; in assay [2] it was 0.1 to 0.5 nM; in assay [3] it was 0.1 to 0.5 nM; in assay [4], 0.5 to 1 nM; in assay [5] it was 0.1 to 0.5 nM.

As to `Cc1cc(C(=O)N[C@H]2CCCCC/C=C\[C@@H]3C[C@@]3(C(=O)NS(=O)(=O)C3(C)CC3)NC(=O)[C@@H]3C[C@@H](Oc4nc5cc(F)ccc5c5ccccc45)CN3C2=O)no1`, the EC50 in assay [1] is more than 1 nM; in assay [2] it was less than 0.1 nM; in assay [3] it was 0.1 to 0.5 nM; in assay [4], 0.1 to 0.5 nM; in assay [5], 0.1 to 0.5 nM.

Take `CC1(S(=O)(=O)NC(=O)[C@@]23C[C@H]2/C=C\CCCCC[C@H](NC(=O)c2cncs2)C(=O)N2C[C@H](Oc4nc5ccccc5c5cc(F)ccc45)C[C@H]2C(=O)N3)CC1`: the EC50 was more than 1 nM in assay [1]; less than 0.1 nM in assay [2]; 0.1 to 0.5 nM in assay [3]; 0.5 to 1 nM in assay [4]; 0.1 to 0.5 nM in assay [5].

On to `CC1(S(=O)(=O)NC(=O)[C@@]23C[C@H]2/C=C\CCCCC[C@H](NC(=O)c2cscn2)C(=O)N2C[C@H](Oc4nc5ccccc5c5cc(F)ccc45)C[C@H]2C(=O)N3)CC1`, for which the EC50 in assay [1] was more than 1 nM; in assay [2], 0.1 to 0.5 nM; in assay [3], 0.1 to 0.5 nM; in assay [4], 0.5 to 1 nM; in assay [5], 0.1 to 0.5 nM.

For the compound `CC1(S(=O)(=O)NC(=O)[C@@]23C[C@H]2/C=C\CCCCC[C@H](NC(=O)c2cncs2)C(=O)N2C[C@H](Oc4nc5cc(F)ccc5c5cc(F)ccc45)C[C@H]2C(=O)N3)CC1`, the EC50 was more than 1 nM in assay [1]; less than 0.1 nM in assay [2]; 0.1 to 0.5 nM in assay [3]; more than 1 nM in assay [4]; 0.1 to 0.5 nM in assay [5].

For the compound `Cn1ccc(C(=O)N[C@H]2CCCCC/C=C\[C@@H]3C[C@@]3(C(=O)NS(=O)(=O)C3(C)CC3)NC(=O)[C@@H]3C[C@@H](Oc4nc5cc(F)ccc5c5ccccc45)CN3C2=O)n1`, the EC50 lay in the range of 0.1 to 0.5 nM in assay [1]; 0.1 to 0.5 nM in assay [2]; 0.1 to 0.5 nM in assay [3]; 0.5 to 1 nM in assay [4]; 0.1 to 0.5 nM in assay [5].

Regarding `O=C(N[C@H]1CCCCC/C=C\[C@@H]2C[C@@]2(C(=O)NS(=O)(=O)C2CC2)NC(=O)[C@@H]2C[C@@H](Oc3nc4cc(F)ccc4c4cc(F)ccc34)CN2C1=O)c1cscn1` [drawing 124], the EC50 in assay [1] is more than 1 nM; in assay [2] it was 0.1 to 0.5 nM; in assay [3], 0.1 to 0.5 nM; in assay [4], 0.5 to 1 nM; in assay [5] it was 0.1 to 0.5 nM.

Take `Cc1cc(C(=O)N[C@H]2CCCCC/C=C\[C@@H]3C[C@@]3(C(=O)NS(=O)(=O)C3CC3)NC(=O)[C@@H]3C[C@@H](Oc4nc5cc(OC(F)(F)F)ccc5c5ccccc45)CN3C2=O)no1`: the EC50 was 0.5 to 1 nM in assay [1]; less than 0.1 nM in assay [2]; 0.1 to 0.5 nM in assay [3]; 0.5 to 1 nM in assay [4]; less than 0.1 nM in assay [5].

For `CC1(S(=O)(=O)NC(=O)[C@@]23C[C@H]2/C=C\CCCCC[C@H](NC(=O)[C@@H](O)C(F)(F)F)C(=O)N2C[C@H](Oc4nc5cc(F)ccc5c5ccccc45)C[C@H]2C(=O)N3)CC1`, the EC50 in assay [1] was more than 1 nM; in assay [2] it was less than 0.1 nM; in assay [3], 0.1 to 0.5 nM; in assay [4] it was 0.5 to 1 nM; in assay [5], 0.1 to 0.5 nM.

`COc1ccc2c(c1)c(O[C@@H]1C[C@H]3C(=O)N[C@]4(C(=O)NS(=O)(=O)C5CC5)C[C@H]4/C=C\CCCCC[C@H](NC(=O)c4cc(C)on4)C(=O)N3C1)nc1ccccc12`: the EC50 was more than 1 nM in assay [1]; less than 0.1 nM in assay [2]; 0.5 to 1 nM in assay [3]; 0.1 to 0.5 nM in assay [4]; 0.1 to 0.5 nM in assay [5].

For `CC1(S(=O)(=O)NC(=O)[C@@]23C[C@H]2/C=C\CCCCC[C@H](NC(=O)[C@H](O)C(F)(F)F)C(=O)N2C[C@H](Oc4nc5cc(F)ccc5c5ccccc45)C[C@H]2C(=O)N3)CC1`, the EC50 in assay [1] is more than 1 nM; in assay [2], less than 0.1 nM; in assay [3], 0.1 to 0.5 nM; in assay [4] it was 0.1 to 0.5 nM; in assay [5], less than 0.1 nM.

With `COc1ccc2c(c1)nc(O[C@@H]1C[C@H]3C(=O)N[C@]4(C(=O)NS(=O)(=O)C5CC5)C[C@H]4/C=C\CCCCC[C@H](NC(=O)c4ccn(C)n4)C(=O)N3C1)c1ccc(F)cc12`, the EC50 in assay [1] was 0.5 to 1 nM; in assay [2], 0.1 to 0.5 nM; in assay [3] it was 0.1 to 0.5 nM; in assay [4], 0.1 to 0.5 nM; in assay [5], 0.5 to 1 nM.
